Data published in paper PMC10154249, “Unique progerin C-terminal peptide ameliorates Hutchinson–Gilford progeria syndrome phenotype by rescuing BUBR1” (Nature Aging, 2023).

How the values were obtained:
senescent IMR90 cells = assay: CCK8 cell viability of DNA damage-induced senescent IMR90 cells; type: cell-based, human; settings: IMR90, 10 days after bleomycin, doxorubicin, ionizing radiation or etoposide
Description: (§1) Fibroblasts from patients with HGPS were obtained from The Progeria Research Foundation Cell and Tissue Bank (http://www.progeriaresearch.org). The following fibroblasts were used: HGADFN003, HGADFN167, HGMDFN090 and HGFDFN168. Human dermal fibroblasts (GM00038 and AG09602) were obtained from Coriell Cell Repository (https://catalog.coriell.org). These cells were characterized by DNA fingerprinting and isozyme detection and were tested by a MycoBlue Mycoplasma Detector (Vazyme Biotech) to exclude mycoplasma contamination before the experiments. […] HGADFN003, HGADFN167, HGMDFN090, HGFDFN168, GM00038 and AG09602 were cultured in DMEM medium with 15% (v/v) fetal bovine serum (VivaCell). […] For bleomycin-induced senescence, IMR90 cells were incubated with the culture medium containing 20 μg ml^–1 Bleomycin (Selleck, catalog no. S1214) for 2 h and analyzed 10 days later, or as otherwise indicated. For doxorubicin-induced senescence, IMR90 cells were treated twice with 100 nM Doxorubicin (Selleck, catalog no. S1208) with a 2 day interval and analyzed 10 days later, or as otherwise indicated. For ionizing radiation (IR)-induced senescence, IMR90 cells were exposed to 10 Gy Gamma rays, and analyzed 10 days later, or as otherwise indicated, the control IMR90 cells were mock irradiated. […]
Cell viability was assessed using the Cell Counting Kit-8 (CCK8) (APE, catalog no. k1018). […]

[1] = tested on: BUBR1 in NIH-3T3-progerin cells; assay: Western blot of BUBR1 in progerin-expressing NIH-3T3 cells; type: cell-based
Description: Western blot was performed as previously described. Cells were lysed in 1× Laemmli sample buffer after washing twice in cold PBS without calcium and magnesium. Protein concentrations were determined using the bicinchoninic acid (BCA) protein assay. Protein lysates were subjected to SDS–PAGE, transferred to 0.45-μm pore size hydrophobic PVDF transfer membrane (Merck Millipore), detected with the appropriate primary antibodies coupled with horseradish peroxidase-conjugated corresponding secondary antibodies, and visualized using enhanced chemiluminescence ECL reagent (GE Healthcare). The Tanon 5500 high-definition low-illumination CCD system (Tanon FLI Capture v.1.02) was used to capture chemiluminescent signals.

PTBP1 = target: T1, PTBP1 (Homo sapiens, UniProt P26599); assay: Pulldown assay of UPCP and PTBP1; type: binding; settings: pulldown (and MST); His-UPCP 10 μg with Flag beads-PTBP1, 16 h at 4 °C
T1 construct: made in house
T1 sequence (P26599 whole entry): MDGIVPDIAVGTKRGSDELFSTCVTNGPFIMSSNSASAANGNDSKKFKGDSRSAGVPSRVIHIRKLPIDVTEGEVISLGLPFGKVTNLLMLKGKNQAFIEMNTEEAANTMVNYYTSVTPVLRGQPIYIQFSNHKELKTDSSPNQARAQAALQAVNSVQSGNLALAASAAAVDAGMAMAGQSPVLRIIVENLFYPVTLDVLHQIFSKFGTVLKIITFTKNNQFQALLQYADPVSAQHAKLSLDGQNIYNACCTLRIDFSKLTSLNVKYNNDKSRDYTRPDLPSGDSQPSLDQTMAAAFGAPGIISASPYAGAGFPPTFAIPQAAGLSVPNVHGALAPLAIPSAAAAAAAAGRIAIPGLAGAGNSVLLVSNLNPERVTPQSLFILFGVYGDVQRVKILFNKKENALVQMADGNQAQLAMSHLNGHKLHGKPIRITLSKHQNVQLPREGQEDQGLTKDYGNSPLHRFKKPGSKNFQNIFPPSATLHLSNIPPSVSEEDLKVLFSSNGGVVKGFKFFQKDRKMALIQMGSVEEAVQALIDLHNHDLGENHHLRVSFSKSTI
Description: Cells were harvested and lysed in buffer A mixed with protease inhibitor cocktail tablet (Roche) after 48 h. […] The beads were washed three times using 1× Tris saline buffer (50 mM Tris-HCl (pH 7.4) and 150 mM NaCl)) for 8 min each. The bound proteins BUBR1 or PTBP1 were eluted with 3×Flag peptide (ApexBio) for 2 h at 4 °C. Finally, BUBR1 or PTBP1 was concentrated and recovered by using the Centrifugal Filters (Amicon Ultra).
A detailed description of the pulldown assay was described previously. His-UPCP fusion protein was expression in bacteria (BL21) and induced with 0.5 mM isopropyl-β-D-thio-galactoside for 16 h at 16 °C. The bacteria were harvested and lysed in TEN buffer (20 mM Tris-HCl (pH7.4), 0.1mM EDTA, 100 mM NaCl). […] His-UPCP was eluted with Imidazole eluent (50 mM NaH2PO4, 300 mM NaCl and 50 mM Imidazole) for 2 h at 4 °C and concentrated and recovered using centrifugal filters (Amicon Ultra). For the pulldown of His-UPCP and Flag-BUBR1 or Flag-PTBP1, 10 μg His-UPCP was incubated with Flag beads (Biotool, catalog no. B23102), Flag beads-BUBR1 or Flag beads-PTBP1 respectively for 16 h at 4 °C. The beads were washed three times with PBS and added to 1× loading buffer for western blot.

HGPS cells = assay: Cellular uptake of FITC-modified UPCP; type: cell-based, human
Description: as §1

IMR90 cells = assay: Cell survival rate analysis in IMR90 cells; type: cell-based, human; settings: Fig. 5o, 48h
Description: Cell viability was assessed using the Cell Counting Kit-8 (CCK8) (APE, catalog no. k1018). The cells were plated in triplicate in 96-well plates (typically 10,000 cells per 100 μl per well) and were incubated with fresh medium for 24 h. Then, the cells were incubated with different concentrations (0 μM, 10 μM, 20 μM, 30 μM) of UPCP for 0 h, 24 h, 48 h or 72 h. CCK8 solution (10 μl) was added to the well for a 2 h incubation at 37 °C. Absorbance was measured at 450 nm with a 96-well plate reader (Tecan Infinite M NANO^+). Data were analyzed and further processed in i-control v.2.0 and GraphPad Prism v.7.

H-YGRKKRRQRRRYNLRSRTVLCGTCGQPADKASASGSGAQSPQNCSIM-OH (cysteines drawn unpaired) [UPCP, unique progerin C-terminal peptide]
proliferation of DNA damage-induced senescent cells (senescent IMR90 cells): did not cause DNA damage-induced senescent cells to proliferate
BUBR1 abundance [1]: upregulated BUBR1
combination with PTBP1 (PTBP1): combined with PTBP1
time to cellular uptake (HGPS cells): ≤ 2 h
Cell survival rate analysis (UPCP-OD/Mock-OD) (IMR90 cells; 10μM, UPCP-0μM = 1, P=0.1549, replicate 1): 0.9983
Cell survival rate analysis (UPCP-OD/Mock-OD) (IMR90 cells; 10μM, UPCP-0μM = 1, P=0.1549, replicate 2): 1.052
Cell survival rate analysis (UPCP-OD/Mock-OD) (IMR90 cells; 10μM, UPCP-0μM = 1, P=0.1549, replicate 3): 1.032
Cell survival rate analysis (UPCP-OD/Mock-OD) (IMR90 cells; 20μM, UPCP-0μM = 1, P=0.2306, replicate 1): 1.032
Cell survival rate analysis (UPCP-OD/Mock-OD) (IMR90 cells; 20μM, UPCP-0μM = 1, P=0.2306, replicate 2): 1.043
Cell survival rate analysis (UPCP-OD/Mock-OD) (IMR90 cells; 20μM, UPCP-0μM = 1, P=0.2306, replicate 3): 1.31
Cell survival rate analysis (UPCP-OD/Mock-OD) (IMR90 cells; 30μM, UPCP-0μM = 1, P=0.4981, replicate 1): 0.9716
Cell survival rate analysis (UPCP-OD/Mock-OD) (IMR90 cells; 30μM, UPCP-0μM = 1, P=0.4981, replicate 2): 1.072
Cell survival rate analysis (UPCP-OD/Mock-OD) (IMR90 cells; 30μM, UPCP-0μM = 1, P=0.4981, replicate 3): 1.021
